Data on one compound can be found in ChEMBL document CHEMBL1136539, “N-ferrocenylmethyl, N'-methyl-2-substituted benzimidazolium iodide salts with in vitro activity against the Leishmania infantum parasite strain L1” (Bioorg Med Chem Lett, 2003).

This test relates to Leishmania infantum. The test is described as follows: Inhibitory activity against Leishmania infantum parasite L1 strain. The test is classed as functional, organism-based.

Some results are limits rather than exact numbers.

`C[C@@H]1[C@H](O)[C@@H](C)/C=C/C=C/C=C/C=C/C=C/C=C/C=C/[C@H](O[C@@H]2O[C@H](C)[C@@H](O)[C@H](N)[C@@H]2O)C[C@@H]2O[C@](O)(C[C@@H](O)C[C@@H](O)[C@H](O)CC[C@@H](O)C[C@@H](O)CC(=O)O[C@H]1C)C[C@H](O)[C@H]2C(=O)O` [AMPHOTERICIN B] came in with an IC50 of less than 6.25 µM.
